{
  "source": "patent US20220023269A1",
  "about": "“Methods Of Treating Diabetes In Severe Insulin-Resistant Diabetic Subjects” (Balticgruppen Bio AB, priority 2018, published 2022)",
  "key": {"[1]": {"system": "conscious beagle dogs", "experiment": "Cardiovascular safety pharmacology study using radiotelemetry in conscious beagle dogs", "assay_type": "in vivo", "settings": "single oral doses 60, 180, 540 mg/kg", "procedure": "Telemetry analyses was performed by CiToxLAB North America (Laval, Quebec, Canada) in adult male beagle dogs, selected from CiToxLAB North America Dog Telemetry Colony, which had previously undergone surgery for telemetry transmitter implantation to monitor the arterial blood pressure, electrocardiogram, body temperature and locomotor activity (Data Science International, Model D70-PCT). All surgical procedures were performed in accordance with relevant Standard Operating Procedures. A telemetry transmitter was placed between the internal abdominal oblique muscle and the aponeurosis of the transverses abdominis of each animal. The pressure catheter was inserted into the femoral artery and the biopotential leads subcutaneously in a Lead II configuration. Test material was gavaged as a suspension at 60, 180, or 540 mg/kg."}, "[2]": {"system": "hIAPPtg islets", "experiment": "Ex vivo islet amyloid assay", "assay_type": "cell-based, mouse", "settings": "22 mM glucose", "procedure": "Islets amyloid was quantification was done on pancreatic tissues isolated from hIAPPtg mice on HFD for 16 weeks (n=7 mice/n=69 islets) and hIAPPtg mice on HFD for 9 weeks then switched to test material-HFD (2 mg/g) for 7 weeks (n=5 mice/n=48 islets). Isolated pancreases was direct frozen, sectioned, and amyloid content quantified by staining with Thioflavin-S as previously described (Reference 2). For ex vivo analyses, islets were isolated by collagenase digestion of the pancreas (Reference 1) and cultured in RPMI medium 1640 (GIBCO #11879-0) supplemented with 11.1 or 22.2 mM glucose (GIBCO #A24940-01), 1% fetal bovine serum (GIBCO #10500), 50 U; μg/ml Pen/Strep (Gibco #15140-122), 10 mM Hepes (Umeå University, Laboratory medicine), 1 mM sodium pyruvate (GIBCO #11360-039) and 0.1% 2-Mercaptoethanol (Sigma #M3148). 0, 2.5, 5.0, and 10 μM test material were added from day 0 of culture. For assessing the effect of autophagy inhibition, 3-Methyladenine (3-MA, Aldrich #M9281), 5 μM, was added from day 0 of culture in combination with test material, 5 μM. The control contained DMSO 1:2000. Medium and compounds were changed every second day. After 92 hours of treatment islets were embedded, sectioned and amyloid content quantified by staining with Thioflavin-S as previously described (Reference 2). A minimum of 3 independent experiments was evaluated."}, "[3]": {"system": "AMPK in HeLa cells", "experiment": "AMPK activation assay in HeLa cells (LKB1 null)", "assay_type": "cell-based, human", "settings": "LKB1 null cells; 2.5, 5 or 10 μM, 4 hours", "procedure": "All cell lines were lysed in 0.1 M Tris-HCl, pH 6.8, 2% SDS, 10 mM sodium fluoride (SIGMA #S7920), 10 mM β-glycerophosphate (SIGMA #G6376), and 1 mM sodium vanadate (SIGMA #72060) and supernatant collected after 1 minute at 14,000 rpm. Islets (human and mouse) were lysed in 0.1 M Tris-HCl, pH 6.8, 2% SDS, protease inhibitor (Roche #04 693 124 001) and phosphatase inhibitor (Roche #04 906 837 001). Right calf muscle, heart, iWAT, and interscapular BAT was crushed in a pestle using liquid nitrogen and homogenised in ice cold RIPA buffer (150 mM sodium chloride (SIGMA #S7653), 1.0% NP40 (USB), 0.5% sodium deoxycholate (SIGMA #D6750), 0.1% SDS, 50 mM Tris pH 8.0, 20 mM sodium pyrophosphate (SIGMA #71515), 10 mM sodium fluoride, 10 mM β-glycerolphosphate, 1 mM sodium vanadate and protease inhibitor cocktail (Roche #04693124001), 1 tablet/10 ml lysis buffer). The supernatant was collected after 2 min at 14,000 rpm. This procedure was repeated until all fat was eliminated and the supernatant was clear, at 4° C. Samples were analysed on 4-15% polyacrylamide gels. Values were normalised toward AMPKα, β-Actin, GAPDH or the respective non-phosphorylated counterpart.\nTable 3 contains origin of cell lines, growth conditions and settings for activation of AMPK via the test material. […]"}},
  "data": [
    {"compound": "O=C(Nc1nc(=O)n(Cc2ccc(Cl)cc2)s1)c1ccc(Cl)cc1", "note": "[test material, 4-chloro-N-[2-[(4-chlorophenyl)methyl]-3-oxo-1,2,4-thiadiazol-5-yl]benzamide]", "values": [
      {"measurement": "blood pressure (systolic and diastolic)", "setting": "[1]", "result": "acutely reduced blood pressure"},
      {"measurement": "preventive effect on amyloid formation in presence of autophagy inhibitor 3-MA", "setting": "[2]; 5.0 μM test material + 5.0 μM 3-MA", "result": "significantly attenuated"},
      {"measurement": "amyloid formation (Thio-S+ deposits)", "setting": "[2]; 2.5, 5.0, 10 μM, dose-dependent", "result": "attenuated amyloid formation"},
      {"measurement": "basal levels of pAMPK and pACC", "setting": "[3]", "result": "failed to increase"}
    ]}
  ]
}
